Measurements: patent US20060034911A1, “New oral immediated release dosage form” (priority 2002, published 2006)

Key:
[1] = physchem
[2] = Plasma elimination half-life in man; type: in vivo; conditions: human, read-out: plasma elimination half-life, t1/2 (converted)

Structure (SMILES): Br.Cc1ccc(N2CCN(C)CC2)c2c1CC[C@@H](NC(=O)c1ccc(N3CCOCC3)cc1)C2 [(R)-N-[5-methyl-8-(4-methylpiperazin-1-yl)-1,2,3,4-tetrahydro-2-naphthyl]-4-morpholinobenzamide monohydrobromide]
- solubility ([1]; 0.1 M HCl, simulated gastric fluid): 11 mg/mL
- solubility ([1]; ethanol/water 1:1, aqueous with cosolvent or surfactant or cyclodextrin): 19 mg/mL
- solubility ([1]; water): 6.4 mg/mL
- half-life [2]: 35 h
